Test results as given in patent US11026943B2, “Aminoquinoline derivatives and uses thereof” (UNIVERSITY OF DELHI, priority 2012, dated 2021).
Where “and” joins values, the source holds several entries; their conditions need not be identical. Equal entries are not always repeated.

Experiments:
[1] = system: MPTP-treated monkeys; conditions: previous study; cited from earlier work
[2] = molecular target: T1, Nurr1 LBD (Mus musculus, UniProt Q06219); experiment: Nurr1 LBD GAL4 reporter assay (pSVGAL(DBD)-N(LBD), p8xGAL-Luc) in SK-N-BE(2)C cells; format: cell-based
T1 sequence (Q06219 328-598): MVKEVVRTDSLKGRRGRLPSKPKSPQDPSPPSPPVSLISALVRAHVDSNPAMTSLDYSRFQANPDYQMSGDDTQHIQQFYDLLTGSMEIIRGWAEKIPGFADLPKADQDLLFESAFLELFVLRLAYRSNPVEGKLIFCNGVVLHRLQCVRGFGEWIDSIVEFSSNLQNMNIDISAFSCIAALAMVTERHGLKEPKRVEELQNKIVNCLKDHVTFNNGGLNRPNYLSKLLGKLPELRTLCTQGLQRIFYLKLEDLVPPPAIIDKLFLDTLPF
Source text: (§1) The pTH2600LUC reporter construct contains the 2.6 kb upstream sequences of the rat tyrosine hydroxylase gene in front of a firefly luciferase gene in pGL3-basic vector. A Nurr1-expression plasmid, pSV40Nurr1, was kindly provided by Dr Orla M. Conneely at Baylor College of Medicine (Houston, Tex., USA). […] The VP16/SRC1 and VP16/SRC3 hybrid were constructed by inserting the transactivation domain of the VP16 protein upstream of SRC1 and SRC3, respectively. […] The recombinant proteins were purified by Ni-NTA column chromatography (Qiagen) according to the manufacturer's instruction. The integrity of all sequences was verified by DNA sequence analyses.
(§2) Human neuroblastoma SK-N-BE(2)C cells were maintained in Dulbecco's modified Eagle's medium (DMEM) supplemented with 10% fetal bovine serum. All culture media contained 100 units/ml penicillin and 100 μg/ml streptomycin. For transfection, cells were plated at 1.5×10^5 cells/well in the DMEM media without antibiotic into 24-well plates 1 day prior to transfection. Transfections were carried out by the Lipofectamine plus (Invitrogen) according to the manufacture's protocol. Total DNA amount was 0.5 μg per well with 0.1 μg of pRSV-β-gal as an internal control. 6 hours after transfection, compounds in the DMEM media with 1% charcoal-stripped fetal calf serum was added and incubated overnight. Cells from each well were lysed with 100 μl of lysis buffer, which contains 25 mM Tris-phosphate (pH 7.8), 2 mM DTT, 2 mM CDTA (1,2-diaminocyclohexane-N,N,N′,N′-tetraacetic acid), 10% glycerol, and 1% Triton X-100. Then equal volume of firefly luciferase substrate was added and the luciferase activity was measured using a Luminometer plate reader and normalized for beta-galactosidase activity.

[3] = system: LBDs of Nur77, GR, LXR, RXR, PPARα, PPARγ; experiment: Target selectivity: GAL4-LBD reporter assays of other nuclear receptors; format: cell-based; conditions: FIG. 19; 30 μM AQ
Procedure: The positive reactivity of these NR constructs was confirmed by the known activators (2 nM dexamethasone, 20 nM retinoic acid, 2 μM GW3965, 50 nM GW7647, and 5 nM GW1929 for GR, RXR, LXR, PPARα, and PPARγ, respectively). The basal level of transcriptional activity was normalized to 1. Bars represent means±SEM from three independent experiments.
(§3) Human neuroblastoma SK-N-BE(2)C cells were maintained in Dulbecco's modified Eagle's medium (DMEM) supplemented with 10% fetal bovine serum. All culture media contained 100 units/ml penicillin and 100 μg/ml streptomycin. For transfection, cells were plated at 1.5×10^5 cells/well in the DMEM media without antibiotic into 24-well plates 1 day prior to transfection. Transfections were carried out by the Lipofectamine plus (Invitrogen) according to the manufacture's protocol. Total DNA amount was 0.5 μg per well with 0.1 μg of pRSV-β-gal as an internal control. 6 hours after transfection, compounds in the DMEM media with 1% charcoal-stripped fetal calf serum was added and incubated overnight. […] Then equal volume of firefly luciferase substrate was added and the luciferase activity was measured using a Luminometer plate reader and normalized for beta-galactosidase activity.

[4] = system: PC12 cells; experiment: 6-OHDA toxicity in PC12 cells (MTT reduction assay); format: cell-based, rat
Procedure: Cell viabilities were determined by the conventional MTT reduction assay. After incubation for indicated times, cells were treated with the MTT solution (final concentration, 1 mg/ml, Sigma) for 1 h. Formazan grains formed in intact cells were solubilized with MTT Solubilization. Solution containing 10% Triton X-100 plus 0.1 N HCl in anhydrous isopropanol for 24 h and then absorbance at 570 nm was measured with a microplate reader (Molecular Devices, Menlo Park, Calif.).

[5] = system: primary cultures of rat mesencephalic DA neurons; experiment: 6-OHDA-induced death in primary mesencephalic DA neurons (TH+ count, [3H]DA uptake); format: cell-based; conditions: number of TH+ neurons and DA uptake; 20 μM 6-OHDA for 24 hr
Procedure: Control DA neurons were treated with the above medium in the presence of a dopamine uptake blocker, 10 μM mazindol (Sigma). Cells were then washed with ice-cold Krebs Ringers solution and lysed with 0.5 M NaOH. Radioactivity was quantified by a liquid scintillation counter (Beckman, Fullerton, Calif.).
To prepare primary cultures of DA neurons, the ventral mesencephalon was removed from 14 day gestation Sprague Dawley rat embryo (Charles River, Cambridge, Mass.). Tissues were incubated with 0.01% trypsin in MEM (MEM, Invitrogen) for 10 min at 37° C. and triturated using a constricted Pasteur pipette. DA neurons were plated at 1.0×10^5 cells per 9 mm diameter glass cover slip precoated with 100 μg/ml poly-D-lysine (Sigma, St. Louis, Mo.) and 4 μg/ml laminin (Invitrogen). DA neurons were maintained at 37° C. in a humidified 5% CO2 atmosphere in minimum essential medium supplemented with 10% FBS (Hyclone), 2 mM glutamine and 6.0 g/l glucose. […]
Cells were fixed in 4% paraformaldehyde (PFA) for 20 min, washed and then incubated with blocking buffer [PBS, 10% goat serum (Invitrogen), 0.3% Triton X-100 (Sigma)] for 1 hour. […] Following washes with PBS, appropriate fluorescence-tagged secondary antibodies (Jackson Immunoresearch Laboratories, West Grove, Pa.) were used for visualization. […]

[6] = molecular target: T1, Nurr1 LBD; experiment: Filter binding assay with [3H]-CQ (saturation and competition)
Source text: The basal level of transcriptional activity was normalized to 1. The bars represent means±SEM from three independent experiments. (FIG. 13C) Effect of Nurr1 specific siRNA on Nurr1 LBD's transactivation activity. […] (FIG. 13D) Human neuroblastoma SK-N-BE(2)C cells were transfected with the N-terminal flag-tagged SRC1 or SRC3 and the C-terminal myc-tagged full-length Nurr1. […] Cell lysates were immunoprecipitated (IP) using anti-flag antibodies and analyzed by immunoblotting (IB) using anti-myc antibodies. […] The fold induction was derived by comparing each luciferase activity to basal level obtained by non-SRC transfection. […] The concentrations (04) are shown next to the arrows. […] Specific binding was calculated as the difference of total and non-specific binding. The insert indicates Scatchard analysis of the specific binding. […] The data represent the average of triplicate from three independent experiments. All graphs, Kd, Ki, and Bmax values were generated using the non-linear regression program Prism version 5.02.
GF/C filters were wet with in binding buffer and placed on a 48-place filter manifold. […] Filters were washed with 4×100 ml binding buffer, dried, and mixed with 5 ml Scintiverse BD (Fisher) and radioactivity was determined in a Beckman LS6000SC liquid scintillation counter. […] The mixture was applied to GF/C filter and filter was washed and counted as described above.

[7] = system: Nurr1 recruitment to TH promoter NL1 and NL3; experiment: Chromatin immunoprecipitation in PC12 cells; format: cell-based, rat; conditions: 20 μM AQ or 75 μM CQ for 15 hrs
Procedure: Error bars represent standard deviations.
Cells were washed with PBS, fixed with 1% formaldehyde, lysed, and sonicated according to the manufacturer's instruction (Active Motif). 25 μg of soluble chromatin DNA were co-immunoprecipitated 1 μg of Nurr1 specific antibody (E-20, Santa Cruz) or control antibody (rabbit IgG, santa Cruz). […] Values are shown as fold induction compared to mock treated control cells.

[8] = system: aphakia (ak/ak) mice; experiment: Behavioral studies in ak/ak mice (Pole, Challenging Beam, Cylinder, Rotarod) and SN histology; format: in vivo, mouse; conditions: L-DOPA 8 mg/kg i.p. once per day
Procedure: Either 20 mg/kg of AQ (AQ group) or the saline (Saline group) was intraperitoneally injected (I.P.) twice per day for two weeks. 8 mg/kg of L-DOPA (L-DOPA group) in 0.5% DMSO was injected (I.P.) once per day for two weeks. The L-DOPA group was given 12.5 mg/kg benserazide 20 min prior to administration of L-DOPA.
Each ak mouse was randomly assigned into one of three experiment groups, (1) saline group (negative control; n=8), (2) L-DOPA group (positive control; n=8), (3) AQ group (n=10). Each WT or rdl mouse was randomly divided into two groups, (1) saline group (n=8) and (2) AQ group (n=10). Pole Test, Challenging Beam Traversal Test, and Cylinder Test were performed at two time points, immediately and one month after two weeks of either AQ or saline injection. Each mouse ran each task twice. Rota rod test was performed immediately after two weeks of either drug or saline injection. Acclimation and data recording process were identical to the rat study described above. All tasks were performed as described previously^11 and the short description of each task is as follows.
A vertical wooden pole 50 cm in length and 1 cm in diameter was used for Pole Test. Each mouse was gently placed head upwards on top of the pole which is placed on each animal's home cage. Each mouse ran tree trials per session during 2 training sessions. On the testing day, mice ran three trials. Two parameters (the meantime to orient downward and the total travel mean time) were used for the statistical analysis.
A 1 m length of plastic beam was used for Challenging Beam Traversal Test. The starting width of the beam was 3.5 cm and it gradually narrowed in 1 c increments to 0.5 cm at the other end site of the beam. Animals were trained to walk from the wide end to the other end for 2 sessions, three trials per session before testing. A mesh grid was removed during the training period. On the testing day, a mesh grid (1 cm square) covering the beam surface was equipped leaving a […] room between the grid and the beam surface. On the testing day, mice ran three trials. Two parameters (the mean number of steps taken by each animal and the mean time to traverse across three trials) were collected and used for statistical analysis.
A small transparent cylinder (height, 15.5 cm; diameter, 12.7 cm) was used to evaluate somatosensory motor function. Mice were placed in the cylinder and their rears were counted for 5 minutes. The forelimb touching the Plexiglas wall (a vertical movement) is defined as a full rear. The mean number of forelimb use was calculated for the statistical analysis. […]
The Rota rod equipment (Med-Associates, Inc, Albans, Vt., USA) was used to measure motor coordination. […] The mean latency to fall off from the Rota rod was measured for the statistical analysis. […]

[9] = molecular target: T2, Nurr1 (Mus musculus, UniProt Q06219); experiment: High-throughput cell-based screen of Nurr1-dependent TH promoter activation; conditions: library of 960 FDA-approved drugs
T2 construct: Full-length mouse Nurr1cDNA was amplified by RT-PCR from pSV40Nurr1; expressed in transfected cells; host or cells: SK-N-BE(2)C human neuroblastoma cells
T2 sequence (Q06219 whole entry): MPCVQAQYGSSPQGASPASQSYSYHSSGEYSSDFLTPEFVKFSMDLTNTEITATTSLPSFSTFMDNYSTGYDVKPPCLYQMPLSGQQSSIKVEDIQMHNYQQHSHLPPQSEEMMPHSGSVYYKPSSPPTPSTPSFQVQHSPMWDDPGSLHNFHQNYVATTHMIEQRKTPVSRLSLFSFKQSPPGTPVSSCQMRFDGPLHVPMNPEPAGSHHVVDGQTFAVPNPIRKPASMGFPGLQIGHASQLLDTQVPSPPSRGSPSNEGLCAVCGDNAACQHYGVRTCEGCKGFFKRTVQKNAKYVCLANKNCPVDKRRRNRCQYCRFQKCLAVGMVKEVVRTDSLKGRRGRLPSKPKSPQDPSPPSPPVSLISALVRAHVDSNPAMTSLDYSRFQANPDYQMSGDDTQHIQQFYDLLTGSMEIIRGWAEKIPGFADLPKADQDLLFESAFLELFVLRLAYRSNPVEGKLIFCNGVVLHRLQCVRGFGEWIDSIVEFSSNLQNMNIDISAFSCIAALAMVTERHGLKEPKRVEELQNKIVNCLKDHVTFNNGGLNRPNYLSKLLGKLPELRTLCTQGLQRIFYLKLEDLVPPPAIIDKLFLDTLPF
Source text: The pTH2600LUC reporter construct contains the 2.6 kb upstream sequences of the rat tyrosine hydroxylase gene in front of a firefly luciferase gene in pGL3-basic vector. A Nurr1-expression plasmid, pSV40Nurr1, was kindly provided by Dr Orla M. Conneely at Baylor College of Medicine (Houston, Tex., USA). Full-length mouse Nurr1cDNA was amplified by RT-PCR from pSV40Nurr1 using forward 5′-[sequence]-3′ (SEQ ID NO: 1) and reverse 5′-[sequence]-3′ (SEQ ID NO: 2) oligonucleotides.
as §3

[10] = molecular target: T3, full-length Nurr1 (Mus musculus, UniProt Q06219); experiment: Full-length Nurr1 reporter assay (p4xNL3-Luc) in SK-N-BE(2)C cells; format: cell-based; conditions: dose-dependent, maximal
T3 construct: Full-length mouse Nurr1cDNA was amplified by RT-PCR from pSV40Nurr1; expressed in transfected cells; host or cells: SK-N-BE(2)C human neuroblastoma cells
T3 sequence (Q06219 whole entry): as above
Source text: as §1
as §2, with “6 hours after transfection, compounds in the DMEM media with 1% charcoal-stripped fetal calf serum was added and incubated overnight. Cells from each well were lysed with 100 μl of lysis buffer, which contains 25 mM Tris-phosphate (pH 7.8), 2 mM DTT, 2 mM CDTA (1,2-diaminocyclohexane-N,N,N′,N′-tetraacetic acid), 10% glycerol, and 1% Triton X-100.” left out

Question: Which “MPTP-induced parkinsonian motor abnormalities” value [1] does the source give for CCN(CC)CCCC(C)Nc1ccnc2cc(Cl)ccc12 (stereo not shown) [CQ, chloroquine] here?
Answer: protected them from MPTP-induced parkinsonian motor abnormalities

Question: And the EC50 ([2]; read-out: EC50 Nurr1 LBD-based reporter activity)?
Answer: ~60 µM and ~50 µM

Question: What about the “transcriptional activity of other nuclear receptors” value [3] of the same compound?
Answer: unable to induce

Question: What about the “neuroprotective effect in PC12 cells” value [4] of the same compound?
Answer: neuroprotective effect

Question: What about the “6-OHDA-induced death in primary DA neurons” value [5] of the same compound?
Answer: significantly inhibit

Question: And the Ki ([6]; 500 nM [3H]-CQ)?
Answer: 0.088 µM

Question: And the “Nurr1 recruitment to NL1 and NL3 sites of the TH promoter” value [7]?
Answer: recruited to both NL1 and NL3 sites

Question: With CCN(CC)CCCC(C)Nc1ccnc2cc(Cl)ccc12 (stereo not shown) [[^3H]-CQ] as the compound, how does the Kd ([6]; radioligand saturation binding, read-out: dissociation constant, saturable binding to Nurr1-LBD) read?
Answer: 0.27 µM

Question: Which “rearing activity in Cylinder test” value [8] does the source give for N[C@@H](Cc1ccc(O)c(O)c1)C(=O)O [L-DOPA] here?
Answer: dramatically induced rearing activity

Question: Which “transactivation of Nurr1 LBD / Nurr1 transcriptional function” value ([2]; wide range of concentrations, FIG. 18) does the source give for COc1cc(NC(C)CCCN)c2ncccc2c1 (stereo not shown) [primaquine] here?
Answer: couldn't enhance the Nurr1 transcriptional function

Question: What about the “Ki, competition with [3H]-CQ for binding to Nurr1-LBD” value ([6]; 500 nM [3H]-CQ) of the same compound?
Answer: unable to compete

Question: What does the source list for O=C(OCC(O)CO)c1ccccc1Nc1ccnc2cc(Cl)ccc12 (stereo not shown) [glafenine]?
Answer: screen outcome [9]: hit compounds; luciferase reporter activity, fold activation [10]: approximately 1.6 fold
